According to patent US11613531B2, “Inhibitors of RHO associated coiled-coil containing protein kinase” (Kadmon Corporation, LLC, priority 2017, dated 2023):
Read-outs that look alike come from different tables or passages of the source.

How the values were obtained:
[1] = tested on: human ACTA2 gene promoter luciferase reporter in NIH3T3 cells; experiment: NIH3T3 Acta2-promoter driven-luciferase assay; assay type: cell-based; details: read-out: NIH3T3 Acta2-luc, IC50
Description: NIH3T3 Cells Acta2-Promoter Driven-Luciferase Assay.
A NIH3T3 cell line stably expressing a luciferase reporter driven by the human ACTA2 gene promoter (−1000-1 bp) was established (NIH3T3-Acta2-luciferase). The cells were plated to confluence and treated with the test compounds plus TGFβ1 for 24 hr. Cells were then lysed and luciferase activity was measured using the LightSwitch luciferase kit from Active Motif.
In vitro activities for the compounds were measured with Z′-lyte kinase kit (ThermoFisher Scientific). The percent inhibition rate was calculated by normalizing the kinase activity value obtained with 1 μM compound treatment against DMSO control value and then applied to the formula, [1-(compound/DMSO)]×100%. IC50s were calculated using the nonlinear regression curve fit function of the GraphPad Prism software with kinase activities data measured with 9 points 2-fold serial dilution of compounds treatment. In cell pMLC IC50s were calculated with data obtained from A7R5 cell experiments. A7R5 cells were treated with 9 points 2-fold serial dilution of compounds and ppMlc (T18/S19) levels were determined to calculate cellular IC50 values of the compounds using the nonlinear regression curve fit function of the GraphPad Prism software. NIH3T3 cells stably expressing ACTA2-promoter-driven-luciferase were applied to measure ROCK compounds functional IC50s in cells. Cells were plated in 96 well plates to confluence and treated with 9 points serial dilution of compounds in combination with TGFβ1 for 24 hr. Luciferase activities were measured and compound's IC50s were calculated using the nonlinear regression curve fit function of the GraphPad Prism software.
ROCK inhibitors can be effectively rank ordered by ACTA2-promoter-driven-luciferase reporter cell assay. NIH3T3 cells stably expressing ACTA2-promoter-driven-luciferase were plated in 96 well plates to confluence and treated with 9 points serial dilution of compounds in combination with TGFβ1 for 24 hr. Luciferase activities were measured and compound's IC50s were calculated. By this assay multiple compounds of the invention gave IC50s under 200 nM.

[2] = biological target: Recombinant ROCK1 (amino acids 1-535) (Homo sapiens (Human), UniProt Q13464); experiment: Z′-Lyte kinase assay, ROCK1; assay type: biochemical
Sequence of Recombinant ROCK1 (amino acids 1-535) (Q13464 1-535): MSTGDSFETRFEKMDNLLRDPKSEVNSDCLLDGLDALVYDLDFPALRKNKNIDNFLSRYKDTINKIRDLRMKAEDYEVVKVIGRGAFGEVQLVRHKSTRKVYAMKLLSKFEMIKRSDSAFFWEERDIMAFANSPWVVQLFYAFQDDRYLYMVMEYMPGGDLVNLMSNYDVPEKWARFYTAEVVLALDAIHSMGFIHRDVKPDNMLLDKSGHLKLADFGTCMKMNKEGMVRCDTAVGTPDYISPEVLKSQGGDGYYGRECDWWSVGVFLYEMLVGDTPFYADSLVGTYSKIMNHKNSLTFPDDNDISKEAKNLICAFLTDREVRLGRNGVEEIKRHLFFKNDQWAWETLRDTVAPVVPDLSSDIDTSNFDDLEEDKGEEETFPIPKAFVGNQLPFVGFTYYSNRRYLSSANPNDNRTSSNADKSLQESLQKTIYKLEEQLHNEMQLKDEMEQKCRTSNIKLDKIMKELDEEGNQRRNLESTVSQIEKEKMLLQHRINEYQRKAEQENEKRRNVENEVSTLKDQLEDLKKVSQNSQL
In short: (§1)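 IC50s derive from nonlinear curve fits over a 9-point, 2-fold dilution series, with single-point inhibition at 1 μM expressed relative to DMSO. Activity of truncated human ROCK1 (residues 1-535) and ROCK2 (residues 1-552) measured with the Z′-Lyte kinase format.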

[3] = tested on: ppMlc (T18/S19) levels in A7R5 cells; experiment: A7R5 in-cell ELISA (pMLC); assay type: cell-based, Rat; details: Rattus norvegicus, A7R5, A7R5 cells; for inhibition at 1 µM: 1 μM compound; for inhibition at 1 µM / inhibition at 10 µM: read-out: pMLC % inh A7R5 @ [conc]; for inhibition at 10 µM: 10 μM compound
In short: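 Cellular IC50 came from a nonlinear regression fit of ppMlc (T18/S19) signal, read by colorimetric in-cell ELISA on fixed cells. Rat A7R5 aortic smooth muscle cells had been exposed for 90 min to compounds in 9-point 2-fold serial dilution, 24 h after seeding.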

[4] = biological target: Recombinant ROCK2 (amino acids 1-552) (Homo sapiens (Human), UniProt O75116); experiment: Z′-Lyte kinase assay, ROCK2; assay type: biochemical; details: for inhibition at 1 µM: 1 μM compound
Sequence of Recombinant ROCK2 (amino acids 1-552) (O75116 1-552): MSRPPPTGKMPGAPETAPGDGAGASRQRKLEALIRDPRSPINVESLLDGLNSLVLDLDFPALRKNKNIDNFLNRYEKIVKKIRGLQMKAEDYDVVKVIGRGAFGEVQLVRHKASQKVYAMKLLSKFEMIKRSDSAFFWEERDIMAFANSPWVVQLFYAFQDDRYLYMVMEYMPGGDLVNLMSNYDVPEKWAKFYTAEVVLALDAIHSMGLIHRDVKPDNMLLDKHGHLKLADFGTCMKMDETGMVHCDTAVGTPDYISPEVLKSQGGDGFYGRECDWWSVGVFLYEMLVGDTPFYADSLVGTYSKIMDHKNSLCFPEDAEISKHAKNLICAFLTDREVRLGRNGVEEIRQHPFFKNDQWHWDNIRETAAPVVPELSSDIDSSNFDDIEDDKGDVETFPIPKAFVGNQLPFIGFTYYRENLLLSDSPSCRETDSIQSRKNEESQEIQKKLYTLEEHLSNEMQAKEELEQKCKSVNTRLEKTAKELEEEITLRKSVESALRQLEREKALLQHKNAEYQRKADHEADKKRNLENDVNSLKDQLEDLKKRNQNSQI
In short: as §1

[5] = NIH3T3, 24 h, with TGFβ1, 24 hr
[6] = read-out: ROCK2 % inh. @ [conc]
[7] = NIH3T3, 24 h, NIH3T3 cells, plus TGFβ1 for 24 hr
[8] = 9 points 2-fold serial dilution

Compound	IC50 [1, 5] [nM]	IC50 [3] [nM]	inhibition at 1 µM [3] [%]	IC50 [1, 7] [nM]	IC50 [2, 8] [nM]	IC50 ([3]; ppMlc (T18/S19)) [nM]	IC50 [4, 8] [nM]	IC50 [4] [nM]	other results
Cc1nc(N2C3CCC2CNC3)nc(Nc2ccc3[nH]ncc3c2)c1C [Example 29, N-(2-(3,8-diazabicyclo[3.2.1]octan-8-yl)-5,6-dimethylpyrimidin-4-yl)-1H-indazol-5-amine]	1090	147	39.1	–	–	–	–	–	IC50 [2]: 42 nM; inhibition at 1 µM [4, 6]: 102%
Cc1cc(Nc2ccc3[nH]ncc3c2)nc(N2CCCNCC2C)n1 (stereo not drawn) [Example 117, N-(6-methyl-2-(2-methyl-1,4-diazepan-1-yl)pyrimidin-4-yl)-1H-indazol-5-amine]	–	–	50.6	1270	15	168	45	–	–
Clc1cnc(N2CC3CC2CN3)nc1Nc1ccc2[nH]ncc2c1 (stereo not drawn) [Example 194, N-(2-(2,5-diazabicyclo[2.2.1]heptan-2-yl)-5-chloropyrimidin-4-yl)-1H-indazol-5-amine]	–	–	31.6	1540	41	176	23	–	inhibition at 1 µM [4, 6]: 98.3%
COc1cnc(N2C3CCC2CNC3)nc1Nc1ccc2[nH]ncc2c1 [Example 198, N-(2-(3,8-diazabicyclo[3.2.1]octan-8-yl)-5-methoxypyrimidin-4-yl)-1H-indazol-5-amine]	413	57	38	–	–	–	–	5	IC50 [2]: 4.1 nM; inhibition at 1 µM [4, 6]: 104%
c1cc(Nc2ccc3[nH]ncc3c2)nc(N2C3CNCC2C3)n1 [Example 200, N-(2-(3,6-diazabicyclo[3.1.1]heptan-6-yl)pyrimidin-4-yl)-1H-indazol-5-amine]	–	–	–	1600	28	275	1.6	–	inhibition at 10 µM [3]: 49.8%
c1cc(Nc2ccc3[nH]ncc3c2)nc(N2CC3CC2CN3)n1 (stereo not drawn) [Example 201, N-(2-(2,5-diazabicyclo[2.2.1]heptan-2-yl)pyrimidin-4-yl)-1H-indazol-5-amine]	–	–	50.1	1640	37	168	27	–	–
Cc1cc(Nc2ccc3[nH]ncc3c2)nc(N2CCNC(C)C2)n1 (stereo not drawn) [Example 204, N-(6-methyl-2-(3-methylpiperazin-1-yl)pyrimidin-4-yl)-1H-indazol-5-amine]	–	–	–	1780	20	231	85	–	inhibition at 10 µM [3]: 70%
Cc1cc(Nc2ccc3[nH]ncc3c2)nc(N2CCNCC2C)n1 (stereo not drawn) [Example 207, N-(6-methyl-2-(2-methylpiperazin-1-yl)pyrimidin-4-yl)-1H-indazol-5-amine]	–	–	–	1260	41	351	104	–	inhibition at 10 µM [3]: 52.3%; inhibition at 1 µM [4, 6]: 91%
Cc1cc(Nc2ccc3[nH]ncc3c2)nc(N2C3CCC2CNC3)n1 [Example 209, N-(2-(3,8-diazabicyclo[3.2.1]octan-8-yl)-6-methylpyrimidin-4-yl)-1H-indazol-5-amine]	–	–	53.2	332	5	47	34	–	–
Cc1cc(Nc2ccc3[nH]ncc3c2)nc(N2C3CNCC2C3)n1 [Example 213, N-(2-(3,6-diazabicyclo[3.1.1]heptan-6-yl)-6-methylpyrimidin-4-yl)-1H-indazol-5-amine]	–	–	34	230	0.2	60	1.6	–	inhibition at 1 µM [4, 6]: 101%
Fc1cnc(N2CCNCC2)nc1Nc1ccc2[nH]ncc2c1 [Example 214, N-(5-fluoro-2-(piperazin-1-yl)pyrimidin-4-yl)-1H-indazol-5-amine]	–	–	–	1250	38	323	26	–	inhibition at 10 µM [3]: 63%
Fc1cnc(N2CCCNCC2)nc1Nc1ccc2[nH]ncc2c1 [Example 215, N-(2-(1,4-diazepan-1-yl)-5-fluoropyrimidin-4-yl)-1H-indazol-5-amine]	–	–	–	1220	40	201	37	–	IC50 ([1]; NIH3T3 cells, plus TGFβ1 for 24 hr): 1780 nM; inhibition at 10 µM [3]: 68.5%
Fc1cnc(N2CC3CCC(C2)N3)nc1Nc1ccc2[nH]ncc2c1 [Example 217, N-(2-(3,8-diazabicyclo[3.2.1]octan-3-yl)-5-fluoropyrimidin-4-yl)-1H-indazol-5-amine]	–	–	51.2	963	6	127	28	–	–
CC1CNCCN(c2ncc(F)c(Nc3ccc4[nH]ncc4c3)n2)C1 (stereo not drawn) [Example 218, N-(5-fluoro-2-(6-methyl-1,4-diazepan-1-yl)pyrimidin-4-yl)-1H-indazol-5-amine]	–	–	53	6110	65	430	–	–	inhibition at 1 µM [4, 6]: 99.5%
Fc1cnc(N2CC3CC2CN3)nc1Nc1ccc2[nH]ncc2c1 (stereo not drawn) [Example 219, N-(2-(2,5-diazabicyclo[2.2.1]heptan-2-yl)-5-fluoropyrimidin-4-yl)-1H-indazol-5-amine]	–	–	46.6	613	18	77	41	–	–
COc1nc(N2C3CCC2CNC3)nc(Nc2ccc3[nH]ncc3c2)c1F [Example 319, N-(2-(3,8-diazabicyclo[3.2.1]octan-8-yl)-5-fluoro-6-methoxypyrimidin-4-yl)-1H-indazol-5-amine]	59	–	–	–	–	–	–	1.1	inhibition at 0.5 µM ([2]; 0.5 μM compound, read-out: ROCK1 % inh. @ [conc]): 98%; inhibition at 0.5 µM ([4]; 0.5 μM compound, read-out: ROCK2 % inh. @ [conc]): 100%
Cc1c(C#N)nc(N2C3CCC2CNC3)nc1Nc1ccc2[nH]ncc2c1 [Example 333, 6-((1H-indazol-5-yl)amino)-2-(3,8-diazabicyclo[3.2.1]octan-8-yl)-5-methylpyrimidine-4-carbonitrile]	1600	577	–	–	–	–	–	44	–
CNC1CC2CC1CN2c1ncc(F)c(Nc2ccc3[nH]ncc3c2)n1 (stereo not drawn) [Example 334, N-(5-fluoro-2-(5-(methylamino)-2-azabicyclo[2.2.1]heptan-2-yl)pyrimidin-4-yl)-1H-indazol-5-amine]	1650	889	–	–	–	–	–	121	–
FC(F)(F)c1nc(N2C3CCC2CNC3)nc(Nc2ccc3[nH]ncc3c2)c1Cl [Example 340, N-(2-(3,8-diazabicyclo[3.2.1]octan-8-yl)-5-chloro-6-(trifluoromethyl)pyrimidin-4-yl)-1H-indazol-5-amine]	894	362	–	–	–	–	–	20	–
FC(F)(F)c1cc(Nc2ccc3[nH]ncc3c2)nc(N2C3CCC2CNC3)n1 [Example 341, N-(2-(3,8-diazabicyclo[3.2.1]octan-8-yl)-6-(trifluoromethyl)pyrimidin-4-yl)-1H-indazol-5-amine]	58	27	–	–	–	–	–	5.8	–
CN(C)c1nc(N2C3CCC2CNC3)nc(Nc2ccc3[nH]ncc3c2)c1F [Example 342]	1950	26	–	–	–	–	–	0.1	–
Cc1nc(N2C3CCC2CNC3)nc(Nc2ccc3[nH]ncc3c2)c1C#N [Example 343, 4-((1H-indazol-5-yl)amino)-2-(3,8-diazabicyclo[3.2.1]octan-8-yl)-6-methylpyrimidine-5-carbonitrile]	223	127	–	–	–	–	–	5.6	–
CN(C)c1nc(N2C3CCC2CNC3)nc(Nc2ccc3[nH]ncc3c2)c1Cl [Example 344, 2-(3,8-diazabicyclo[3.2.1]octan-8-yl)-5-chloro-N^4-(1H-indazol-5-yl)-N^6,N^6-dimethylpyrimidine-4,6-diamine]	192	82	–	–	–	–	–	1.7	–
